The target in one test is FGFR2 (Homo sapiens, UniProt P21802). As to the kind of experiment: Kinase inhibition activity test, isotope labeling: FGFR2. Particulars: test compound at a concentration of 10 μM; for inhibition at 10 µM: read-out: Activity inhibition rate FGFR2 (h). The class given is biochemical. The protocol:
The purpose of this experiment was to test the inhibitory activity of the compound of the invention for in vitro kinase with the isotope labeling method (the γ phosphate group on ATP was labeled). In this experiment, the in vitro activity inhibition of such kinases as FLT3, VEGFR2, FLT1, FLT4, RET, c-RAF, B-RAF, c-KIT, PDGFα, PDGFβ, FGFR2, FGFR1, EphA2, EphB2, SRC, ABL, ALK and Met was tested respectively. Staurosporine was reference molecule (or referred to as positive control). The kinase inhibition activity of the test compound was expressed by half-inhibitory concentration (IC50) or the kinase activity inhibition rate of the test compound at a concentration of 10 μM. The IC50 value could be obtained by calculating the kinase activity inhibition rate of the test compound at different concentrations.
20 mM 3-(N-morpholinyl)propanesulfonic acid (MOPS); 1 mM ethylenediaminetetraacetic acid (EDTA), 0.01% Brij 35 (Brij-35), 5% glycerol, 0.1% mercaptoethanol, 1 mg/mL bovine serum albumin (BSA), 10 mM manganous dichloride solution (MnCl2), 0.1 mg/mL glutamic acid/tyrosine (4:1) polypeptide (poly(Glu, Tyr)4:1), 50 μM EAIYAAPFAKKK (substrate of FLT3), 0.33 mg/mL myelin basic protein (substrate of VEGFR2), 250 μM KKKSPGEYVNIEFG (substrate of FLT1(h)), 500 μM GGEEEEYFELVKKKK (substrate of FLT4(h)), 250 μM KKKSPGEYVNIEFG (substrate of RET), 0.66 mg/mL myelin basic protein (substrate of C-RAF), 250 μM GGMEDIYFEFMGGKKK (substrate of c-Kit), 250 μM GGMEDIYFEFMGGKKK (substrate of PDGFα), 250 μM KKKSPGEYVNIEFG (substrate of FGFR1), […] GGEEEEYFELVKKKK (substrate of SRC), 50 μM EAIYAAPFAKKK (substrate of ABL), 250 μM KKKSPGEYVNIEFG (substrate of ALK), 250 μM KKKSPGEYVNIEFG (substrate of Met(h)), 10 mM magnesium acetate and γ-^33 P-ATP solution, stop buffer (3% phosphate buffer), washing buffer (75 mM phosphate solution), methanol, Filtermat A membrane, FLT3, VEGFR2, FLT3, VEGFR2, FLT1, FLT4, RET, c-RAF, B-RAF, c-KIT, PDGFRα, PDGFRβ, FGFR2, FGFR1, EphA2, EphB2, SRC, ABL, ALK, Met and other kinases, and the test compounds.
Buffers (8 mM MOPS with pH value of 7.0, 0.2 mM EDTA and 10 mM MnCl2), (5-10 mU) kinases to be tested (FLT3, VEGFR2, FLT1, FLT4, RET, c-RAF, B-RAF, c-KIT, PDGFRα, PDGFRβ, FGFR2, FGFR1, EphA2, EphB2, SRC, ABL, ALK and Met), substrates of kinases to be tested (refer to experimental materials), 10 mM magnesium acetate and γ-^33 P-ATP solution, and test compounds at different concentrations were added to a reaction tube orderly. […] Reaction was terminated with 5 μL 3% phosphate buffer finally, and 10 μL reaction solution was titrated to the Filtermat A membrane; solution was washed for 3 times with 75 mM phosphate solution with each time lasting 5 minutes, and then washed once with methanol. Finally, the Filtermat A membrane was dried, and scintillation counting was performed on the membrane, with scintillation count reflecting the phosphorylation degree of the substrates, so that the activity inhibition of kinase could be characterized.

The test system of test [1] is human leukemia cell line MV4-11. The experiment in a line: In vitro tumor cell proliferation inhibition (MTT): MV4-11. Type of test: cell-based. The procedure, abridged:
(§1)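 Cells seeded at 1-2×10^4/mL, cultured overnight, then exposed to graded compound concentrations (0.1% DMSO) for 72 h at 37° C., 5% CO2, triplicate wells. MTT added for 2-4 h, formazan dissolved in DMSO, absorbance read at 570 nm; IC50 or inhibition rate from ≥3 repeats.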

Test [2] concerns human gastric carcinoma cell line MKN-45. As to the kind of experiment: In vitro tumor cell proliferation inhibition (MTT): MKN-45. Type of test: cell-based. The procedure, abridged: as §1
Test [3] has as its system human pancreatic carcinoma cell line panc-1. The experiment in a line: In vitro tumor cell proliferation inhibition (MTT): panc-1. The class given is cell-based. In short, it runs like this: as §1
Test [4] has as its system human leukemia cell line Jurkat. The experiment in a line: In vitro tumor cell proliferation inhibition (MTT): Jurkat. The class given is cell-based. Particulars: 72 hours. The procedure, abridged:
as §1

Test [5] has as its system human colorectal carcinoma cell line HCT116. As to the kind of experiment: In vitro tumor cell proliferation inhibition (MTT): HCT116. Type of test: cell-based. The procedure, abridged: as §1
The test system of test [6] is human cervical carcinoma cell line HELA. The experiment in a line: In vitro tumor cell proliferation inhibition (MTT): HELA. Type of test: cell-based. Particulars: 72 hours. The procedure, abridged:
as §1

Setting [7] is: Homo sapiens, HCT-116, 72 hours.
Where [8] appears, read: 72 hours, read-out: Proliferation inhibition activity (IC50) HCT 116.

SMILES strings stand for the structures. pIC50: −log10 of the molar value. Read-outs that look alike come from different tables or passages of the source.

Chain of FGFR2 (P21802 22-821): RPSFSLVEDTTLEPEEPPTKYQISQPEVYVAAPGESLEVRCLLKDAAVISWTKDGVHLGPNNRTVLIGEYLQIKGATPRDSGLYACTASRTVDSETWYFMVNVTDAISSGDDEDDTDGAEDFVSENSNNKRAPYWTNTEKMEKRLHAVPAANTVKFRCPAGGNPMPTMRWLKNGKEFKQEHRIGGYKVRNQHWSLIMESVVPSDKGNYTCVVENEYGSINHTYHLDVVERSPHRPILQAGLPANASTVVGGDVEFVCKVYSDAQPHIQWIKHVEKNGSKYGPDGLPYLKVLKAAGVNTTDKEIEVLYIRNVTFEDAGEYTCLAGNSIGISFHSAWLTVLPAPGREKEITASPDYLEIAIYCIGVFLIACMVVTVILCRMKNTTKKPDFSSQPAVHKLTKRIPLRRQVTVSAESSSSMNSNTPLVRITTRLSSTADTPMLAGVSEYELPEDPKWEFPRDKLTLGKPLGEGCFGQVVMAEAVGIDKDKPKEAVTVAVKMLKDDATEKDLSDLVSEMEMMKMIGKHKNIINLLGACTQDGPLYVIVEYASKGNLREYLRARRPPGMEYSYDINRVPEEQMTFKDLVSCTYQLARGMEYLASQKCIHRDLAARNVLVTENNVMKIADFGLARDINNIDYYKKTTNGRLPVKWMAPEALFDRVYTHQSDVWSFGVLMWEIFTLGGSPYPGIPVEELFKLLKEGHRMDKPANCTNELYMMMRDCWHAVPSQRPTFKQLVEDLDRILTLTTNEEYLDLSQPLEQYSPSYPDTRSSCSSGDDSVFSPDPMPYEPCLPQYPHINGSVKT

For orientation: inhibition means the relative decrease from the control value, in per cent. As to `O=C(Nc1ccc(Oc2ncnc3[nH]ncc23)cc1)Nc1cc(C(F)(F)F)on1` [4a-28], the inhibition at 10 µM at FGFR2 was greater than 50%. For the same compound, the pIC50 in test [1] (Homo sapiens, MV4-11, 72 h) is 8.92; in test [2] (Homo sapiens, MKN-45, 72 hours), 5.00 to 5.52; in test [3] (Homo sapiens, PANC-1, 72 hours), greater than 4.30; in test [4] (Homo sapiens, Jurkat) it was 5.00 to 5.52; in test [5] (setting [7]) it was greater than 4.30; in test [6] (Homo sapiens, HeLa) it was greater than 4.30.

Regarding `O=C(Nc1cccc(Nc2ncnc3[nH]ncc23)c1)Nc1ccc(F)c(Cl)c1` [4b-1], the inhibition at 10 µM at FGFR2 came out at 22%. Moreover, the pIC50 in test [1] (Homo sapiens, MV4-11, 72 h) is greater than 4.30; in test [2] (Homo sapiens, MKN-45, 72 hours), greater than 4.30; in test [3] (Homo sapiens, PANC-1, 72 hours), greater than 4.30; in test [4] (Homo sapiens, Jurkat), greater than 4.30; in test [5] (setting [7]), greater than 4.30; in test [6] (Homo sapiens, HeLa), greater than 4.30.

For the compound `C[C@@H](NC(=O)Nc1ccc(Nc2ncnc3[nH]ncc23)cc1)c1ccccc1` [4b-2, (R)-1-(4-(1H-pyrazolopyrimidine-4-amido)phenyl)-3-(1-phenethyl)urea], on FGFR2 (10 µM), the “Activity inhibition rate FGFR2 (h)” value was 66%. Besides, the pIC50 was 5.10 in test [1] (72 hours); greater than 4.30 in test [2] (Homo sapiens, MKN-45, 72 hours); greater than 4.30 in test [3] (Homo sapiens, PANC-1, 72 hours); greater than 4.30 in test [4] (Homo sapiens, Jurkat); greater than 4.30 in test [5] (setting [7]); greater than 4.30 in test [6] (Homo sapiens, HeLa).

As for `COc1cccc(NC(=O)Nc2ccc(Nc3ncnc4[nH]ncc34)cc2)c1` [4b-3], the inhibition at 10 µM at FGFR2 worked out at 45%. The pIC50 in test [1] (Homo sapiens, MV4-11, 72 h) is 5.78; in test [2] (Homo sapiens, MKN-45, 72 hours), greater than 4.30; in test [3] (Homo sapiens, PANC-1, 72 hours), greater than 4.30; in test [4] (Homo sapiens, Jurkat), greater than 4.30; in test [5] (setting [7]), greater than 4.30; in test [6] (Homo sapiens, HeLa), greater than 4.30.

On to `C[C@H](NC(=O)Nc1ccc(Nc2ncnc3[nH]ncc23)cc1)c1ccccc1` [4b-4], for which, on FGFR2 (10 µM), the “Activity inhibition rate FGFR2 (h)” value turned out to be 32%. The pIC50 in test [1] (72 hours) is 5.69; in test [2] (72 hours), greater than 4.30; in test [3] (72 hours), greater than 4.30; in test [4], greater than 4.30; in test [5] (setting [8]) it was greater than 4.30; in test [6], greater than 4.30.

As to `CC(C)(C)c1cc(NC(=O)Nc2ccc(Sc3ncnc4[nH]ncc34)cc2)no1` [4c-3, 1-(4-(1H-pyrazolopyrimidine-4-sulfydryl)phenyl)-3-(5-tert-butylisoxazol-3-yl)urea], on FGFR2, the “Activity inhibition rate FGFR2 (h)” value is on record as greater than 50%. Besides, the pIC50 in test [1] (72 hours) is greater than 6.00; in test [2] (72 hours) it was 5.00 to 5.52; in test [3] (72 hours), greater than 4.30; in test [4], greater than 4.30; in test [5] (setting [8]), greater than 4.30; in test [6], greater than 4.30.

Source of the values: patent US9828375B2, “4-position substituted pyrazolopyrimidine derivative, and use thereof in drug preparation” (Guangxi Wuzhou Pharmaceuticals (Group) Co., Ltd., priority 2012, dated 2017).
